Results as given in patent US11739098B2 (BRISTOL-MYERS SQUIBB COMPANY, priority 2017, dated 2023).

What was measured:
Type in all cases: cell-based
human TLR7 = molecular target: T1, human TLR7 (Homo sapiens, UniProt Q9NYK1); experiment: TLR7 inhibition reporter assay (HEK-Blue cells, SEAP reporter, gardiquimod stimulation); details: HEK-Blue cells overexpressing human TLR7, SEAP reporter, gardiquimod 7.5 μM
T1 construct: host or cells: HEK-Blue cells (HEK293-derived reporter line)
T1 sequence (Q9NYK1 27-1049): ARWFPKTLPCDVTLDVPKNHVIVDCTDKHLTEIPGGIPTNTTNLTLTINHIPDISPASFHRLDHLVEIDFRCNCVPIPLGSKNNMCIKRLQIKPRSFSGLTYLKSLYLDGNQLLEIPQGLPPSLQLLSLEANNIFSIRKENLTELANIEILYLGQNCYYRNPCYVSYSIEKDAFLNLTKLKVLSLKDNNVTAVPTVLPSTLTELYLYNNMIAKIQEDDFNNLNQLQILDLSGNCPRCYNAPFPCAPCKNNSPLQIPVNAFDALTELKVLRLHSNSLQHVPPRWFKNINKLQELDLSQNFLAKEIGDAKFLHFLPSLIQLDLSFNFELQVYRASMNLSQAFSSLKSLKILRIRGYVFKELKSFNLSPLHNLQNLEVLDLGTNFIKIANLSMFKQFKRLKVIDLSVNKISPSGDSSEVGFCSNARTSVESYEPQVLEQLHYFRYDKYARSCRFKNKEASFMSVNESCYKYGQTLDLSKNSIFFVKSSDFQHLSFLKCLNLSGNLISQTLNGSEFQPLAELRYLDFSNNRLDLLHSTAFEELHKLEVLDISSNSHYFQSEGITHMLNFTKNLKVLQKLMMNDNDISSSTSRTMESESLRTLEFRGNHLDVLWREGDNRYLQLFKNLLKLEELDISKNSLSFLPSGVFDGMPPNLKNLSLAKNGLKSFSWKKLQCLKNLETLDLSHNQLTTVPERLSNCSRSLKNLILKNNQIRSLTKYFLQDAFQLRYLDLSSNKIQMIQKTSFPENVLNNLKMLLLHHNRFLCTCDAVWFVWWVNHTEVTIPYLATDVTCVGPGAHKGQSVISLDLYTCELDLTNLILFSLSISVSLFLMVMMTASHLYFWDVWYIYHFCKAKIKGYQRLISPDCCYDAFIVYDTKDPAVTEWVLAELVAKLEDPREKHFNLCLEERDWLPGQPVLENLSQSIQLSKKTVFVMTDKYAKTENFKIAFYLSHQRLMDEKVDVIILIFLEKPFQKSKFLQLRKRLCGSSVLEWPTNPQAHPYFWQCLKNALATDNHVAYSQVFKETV
Summary of the method: (§1)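 HEK-Blue cells overexpressing the receptor, with NF-κB/AP-1-driven SEAP, were pre-treated 30 min at room temperature with compound (0.05 nM–50 μM), then stimulated with gardiquimod 7.5 μM (TLR7), R848 15.9 μM (TLR8) or ODN2006 5 nM (TLR9). SEAP was read after 22 h at 37 °C as percent inhibition.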

human TLR9 = molecular target: T2, human TLR9 (Homo sapiens, UniProt Q9NR96); experiment: TLR9 inhibition reporter assay (HEK-Blue cells, SEAP reporter, ODN2006 stimulation); details: HEK-Blue cells overexpressing human TLR9, SEAP reporter, ODN2006 5 nM
T2 construct: host or cells: HEK-Blue cells (HEK293-derived reporter line)
T2 sequence (Q9NR96 26-1032): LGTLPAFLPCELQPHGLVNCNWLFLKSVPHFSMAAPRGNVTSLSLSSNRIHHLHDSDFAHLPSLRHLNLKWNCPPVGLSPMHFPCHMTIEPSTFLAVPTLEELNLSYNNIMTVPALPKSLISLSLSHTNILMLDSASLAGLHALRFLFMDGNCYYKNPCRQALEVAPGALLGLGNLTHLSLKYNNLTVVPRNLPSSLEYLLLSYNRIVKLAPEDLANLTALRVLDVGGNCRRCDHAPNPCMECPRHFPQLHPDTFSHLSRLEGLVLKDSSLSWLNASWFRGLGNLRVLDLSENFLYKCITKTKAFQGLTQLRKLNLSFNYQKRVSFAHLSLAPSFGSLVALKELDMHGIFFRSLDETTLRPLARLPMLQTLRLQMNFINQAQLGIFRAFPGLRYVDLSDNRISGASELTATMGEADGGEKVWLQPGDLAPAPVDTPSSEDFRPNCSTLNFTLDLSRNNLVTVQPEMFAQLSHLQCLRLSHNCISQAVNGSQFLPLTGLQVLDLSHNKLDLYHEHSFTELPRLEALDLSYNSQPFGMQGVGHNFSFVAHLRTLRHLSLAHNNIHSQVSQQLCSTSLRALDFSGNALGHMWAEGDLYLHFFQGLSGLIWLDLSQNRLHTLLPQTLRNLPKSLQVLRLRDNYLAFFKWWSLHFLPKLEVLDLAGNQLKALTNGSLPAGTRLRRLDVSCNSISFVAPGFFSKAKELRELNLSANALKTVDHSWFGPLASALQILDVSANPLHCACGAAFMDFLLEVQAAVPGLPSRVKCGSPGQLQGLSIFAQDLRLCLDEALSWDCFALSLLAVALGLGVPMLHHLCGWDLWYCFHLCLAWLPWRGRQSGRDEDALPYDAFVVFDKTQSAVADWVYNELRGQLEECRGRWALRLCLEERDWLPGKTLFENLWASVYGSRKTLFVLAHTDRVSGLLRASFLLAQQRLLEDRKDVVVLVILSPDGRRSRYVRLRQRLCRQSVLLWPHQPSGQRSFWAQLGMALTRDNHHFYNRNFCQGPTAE
Summary of the method: as §1

human TLR8 = molecular target: T3, human TLR8 (Homo sapiens, UniProt Q9NR97); experiment: TLR8 inhibition reporter assay (HEK-Blue cells, SEAP reporter, R848 stimulation); details: HEK-Blue cells overexpressing human TLR8, SEAP reporter, R848 15.9 μM
T3 construct: host or cells: HEK-Blue cells (HEK293-derived reporter line)
T3 sequence (Q9NR97 27-1041): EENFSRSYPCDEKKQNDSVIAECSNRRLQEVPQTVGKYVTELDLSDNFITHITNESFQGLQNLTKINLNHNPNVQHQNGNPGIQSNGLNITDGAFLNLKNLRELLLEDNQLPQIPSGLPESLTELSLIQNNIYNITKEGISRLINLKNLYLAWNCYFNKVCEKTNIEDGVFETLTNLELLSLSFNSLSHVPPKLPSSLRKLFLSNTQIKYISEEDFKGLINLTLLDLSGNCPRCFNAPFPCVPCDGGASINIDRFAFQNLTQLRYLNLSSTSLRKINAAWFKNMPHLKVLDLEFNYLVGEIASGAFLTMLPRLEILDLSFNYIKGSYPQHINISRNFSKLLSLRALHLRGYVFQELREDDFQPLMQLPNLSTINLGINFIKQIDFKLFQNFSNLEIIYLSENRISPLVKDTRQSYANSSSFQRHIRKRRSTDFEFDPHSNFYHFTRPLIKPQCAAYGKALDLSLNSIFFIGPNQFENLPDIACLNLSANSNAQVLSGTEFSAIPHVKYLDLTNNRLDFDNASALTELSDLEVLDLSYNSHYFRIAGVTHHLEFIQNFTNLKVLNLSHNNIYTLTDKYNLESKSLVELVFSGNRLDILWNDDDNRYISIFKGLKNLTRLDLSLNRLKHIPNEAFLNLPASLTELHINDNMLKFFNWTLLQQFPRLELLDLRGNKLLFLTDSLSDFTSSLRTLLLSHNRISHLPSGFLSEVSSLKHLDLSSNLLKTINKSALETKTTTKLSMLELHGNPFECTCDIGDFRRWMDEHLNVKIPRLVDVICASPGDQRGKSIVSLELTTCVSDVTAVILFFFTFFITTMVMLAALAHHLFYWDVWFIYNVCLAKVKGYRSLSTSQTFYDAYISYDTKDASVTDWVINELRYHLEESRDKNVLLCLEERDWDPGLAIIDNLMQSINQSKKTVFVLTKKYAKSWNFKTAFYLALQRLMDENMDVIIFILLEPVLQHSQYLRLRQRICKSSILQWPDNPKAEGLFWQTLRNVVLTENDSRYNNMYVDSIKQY
Summary of the method: as §1

SMILES | IC50 (human TLR7) [nM] | IC50 (human TLR9) [nM] | IC50 (human TLR8) [nM]
Cc1cc(-c2[nH]c3ccc(C4CCN(CCCC(F)(F)F)CC4)cc3c2C(C)C)cn2nnnc12 [Example 963, 6-(3-isopropyl-5-(1-(4,4,4-trifluorobutyl)piperidin-4-yl)-1H-indol-2-yl)-8-methyltetrazolo[1,5-a]pyridine] | < 100 | 1000 to 50000 | < 100
Cc1c(-c2ccnc3[nH]ncc23)[nH]c2ccc(C3CCNCC3)cc12 [Example 231, 4-(3-methyl-5-(piperidin-4-yl)-1H-indol-2-yl)-1H-pyrazolo[3,4-b]pyridine] | 100 to 1000 | 1000 to 50000 | 100 to 1000
CC(C)c1c(-c2ccc3[nH]nnc3c2)[nH]c2ccc(C3CCNCC3)cc12 [Example 51, 5-(3-isopropyl-5-(piperidin-4-yl)-1H-indol-2-yl)-1H-benzo[d][1,2,3]triazole] | < 100 | 100 to 1000 | < 100
Cc1cc(-c2[nH]c3ccc(C4CCN(C5CCOCC5)CC4)cc3c2C(C)C)cc2cccnc12 [Example 703, 6-(3-isopropyl-5-(1-(tetrahydro-2H-pyran-4-yl)piperidin-4-yl)-1H-indol-2-yl)-8-methylquinoline] | < 100 | 1000 to 50000 | < 100
FC(F)Cc1c(-c2ccnc3[nH]ccc23)[nH]c2ccc(C3CCNCC3)cc12 [Example 205, 4-(3-(2,2-difluoroethyl)-5-(piperidin-4-yl)-1H-indol-2-yl)-1H-pyrrolo [2,3-b]pyridine] | < 100 | 100 to 1000 | < 100

Second part, the molecule after the results:

IC50 (human TLR7) [nM] | IC50 (human TLR9) [nM] | IC50 (human TLR8) [nM] | SMILES
< 100 | 100 to 1000 | < 100 | CC(C)c1c(-c2cnc3c(cnn3C)c2)[nH]c2ccc(C3CCNCC3)cc12 [Example 96, 5-(3-isopropyl-5-(piperidin-4-yl)-1H-indol-2-yl)-1-methyl-1H-pyrazolo[3,4-b]pyridine]
< 100 | 1000 to 50000 | 1000 to 50000 | CNC(=O)CN1CCC(c2ccc3[nH]c(-c4ccn5nc(C)nc5c4)c(C(C)C)c3c2)CC1 [Example 331, 2-(4-(3-isopropyl-2-(2-methyl-[1,2,4]triazolo[1,5-a]pyridin-7-yl)-1H-indol-5-yl)piperidin-1-yl)-N-methylacetamide]
< 100 | 1000 to 50000 | < 100 | CC(C)c1c(-c2cnc3cn[nH]c3c2)[nH]c2ccc(C3CCN(C(=O)CN(C)C)CC3)cc12 [Example 526, 2-(dimethylamino)-1-(4-(3-isopropyl-2-(1H-pyrazolo[4,3-b]pyridin-6-yl)-1H-indol-5-yl)piperidin-1-yl)ethan-1-one]
< 100 | 100 to 1000 | 100 to 1000 | Cc1cn2cc(-c3[nH]c4ccc(C5CCN(C(C)C)CC5)cc4c3C(C)C)cc(C(F)(F)F)c2n1 [Example 943, 6-(3-isopropyl-5-(1-isopropylpiperidin-4-yl)-1H-indol-2-yl)-2-methyl-8-(trifluoromethyl)imidazo[1,2-a]pyridine]
100 to 1000 | 1000 to 50000 | < 100 | CCc1c(-c2ccnc3[nH]ncc23)[nH]c2ccc(C3CCN(Cc4cncn4C)CC3)cc12 [Example 911, 4-(3-ethyl-5-(1-((1-methyl-1H-imidazol-5-yl)methyl)piperidin-4-yl)-1H-indol-2-yl)-1H-pyrazolo[3,4-b]pyridine]
1000 to 50000 | 1000 to 50000 | 1000 to 50000 | Cc1c(-c2ccnc3[nH]cc(O)c23)[nH]c2ccc(C3CCNCC3)cc12 [Example 212, 4-(3-methyl-5-(piperidin-4-yl)-1H-indol-2-yl)-1H-pyrrolo[2,3-b]pyridin-3-ol]
< 100 | > 50000 | < 100 | Cc1cc(-c2[nH]c3ccc(C4CCN(CCC(F)(F)F)CC4)cc3c2C(C)C)cn2nnnc12 [Example 962, 6-(3-isopropyl-5-(1-(3,3,3-trifluoropropyl)piperidin-4-yl)-1H-indol-2-yl)-8-methyltetrazolo[1,5-a]pyridine]
